Where two headings read alike, the source gives them in different places.
Tests used:
[1] = system: HL-60(TB); experiment: NCI-60 DTP Human Tumour Cell Line Screen; format: cell-based; settings: NCI-60 screen, 10 μM, leukaemia panel
[2] = target: T1, EP300 (Homo sapiens, UniProt Q09472); experiment: BROMOscan; format: binding; settings: BROMOscan; read-out: binding affinity to EP300
T1 construct: T7 phage strains displaying bromodomains; host or cells: T7 phage display in E. coli host derived from BL21
T1 sequence (Q09472 1049-1156 limits assumed): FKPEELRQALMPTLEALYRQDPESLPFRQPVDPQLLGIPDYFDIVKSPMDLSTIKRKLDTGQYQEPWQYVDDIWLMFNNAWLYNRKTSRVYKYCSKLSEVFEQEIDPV
Method: (§1) Bromodomain profiling was carried out on the basis of BROMOscan™. This platform accounted for the indirect determination of the dissociation constants between 19 bromodomains and the compound of formula (4), by binding competition against a reference immobilized ligand.
(§2) The target selectivity of the compound of formula (4) within the human BRD family was assessed by means of BROMOscan™. The binding of the compound to at least one representative protein of each BRD family was assessed.
(§3) Bromodomain profiling was carried out on the basis of BROMOscan™, which is a leading platform for identifying small molecule bromodomain inhibitors. BROMOscan™ employs a proprietary ligand binding site-directed competition assay to quantitatively measure interactions between test compounds and bromodomains. The reliable assay panel is suitable for high-throughput screening and delivers quantitative ligand binding data.
(§4) Compounds that bind the bromodomain prevent its binding to the immobilized ligand thus reducing the amount of protein captured. […] Hits are identified by measuring the amount of bromodomain captured in test versus control samples.
(§5) Bromodomain assays: T7 phage strains displaying bromodomains were grown in parallel in 24-well blocks in an E. coli host derived from the BL21 strain. E. coli were grown to log-phase and infected with T7 phage from a frozen stock (multiplicity of infection=0.4) and incubated with shaking at 32° C. until lysis (90-150 minutes). The lysates were centrifuged (5,000×g) and filtered (0.2 μm) to remove cell debris. […] The bound beads were blocked with excess biotin and washed with blocking buffer (SeaBlock (Pierce), 1% BSA, 0.05% Tween 20, 1 mM DTT) to remove unbound ligand and to reduce non-specific phage binding. […] Test compounds were prepared as 1000× stocks in 100% DMSO and subsequently diluted 1:25 in mono ethylene glycol (MEG). The compounds were then diluted directly into the assays such that the final concentrations of DMSO and MEG were 0.1% and 2.4%, respectively. All reactions were performed in polypropylene 384-well plates in a final volume of 0.02 ml. […] The bromodomain concentration in the eluates was measured by qPCR.
(§6) The % Ctrl values were determined as follows: % Ctrl=[(test compound signal-positive control signal)/(negative control signal-positive control signal)]×100
(§7) For 7 bromodomains other than the bromodomains from the BET family dissociation constants Kd were determined and the results are given in Table 3.

[3] = target: T2, CREBBP (Homo sapiens, UniProt Q92793); experiment: BROMOscan; format: binding; settings: BROMOscan; read-out: binding affinity to CREBBP
T2 construct: T7 phage strains displaying bromodomains; host or cells: T7 phage display in E. coli host derived from BL21
Method: as §1, §2, §3, §4, §5, §6, §7

[4] = target: T3, BRD3(2) (Homo sapiens, UniProt Q15059); experiment: BROMOscan; format: binding; settings: BROMOscan
T3 construct: T7 phage strains displaying bromodomains; host or cells: T7 phage display in E. coli host derived from BL21

[5] = system: HeLa; experiment: Antiproliferative activity, HeLa cells; format: cell-based; settings: at a high concentration of 50 μM
Method: BRD4 is a validated therapeutic target in NUT midline carcinoma and in acute myeloid and MLL-fusion leukaemia. The proliferation inhibition potential of the virtual screening hits in HL-60 and HeLa cell lines for the compound of formula (4) was assessed.

[6] = target: T4, BRD4(1) (Homo sapiens, UniProt O60885); experiment: BROMOscan; format: binding; settings: BROMOscan, n=2; read-out: dissociation constant (Kd) in complex with BRD4-BD1
T4 construct: T7 phage strains displaying bromodomains; host or cells: T7 phage display in E. coli host derived from BL21

[7] = target: T5, BRD3(1) (Homo sapiens, UniProt Q15059); experiment: BROMOscan; format: binding; settings: BROMOscan
T5 construct: T7 phage strains displaying bromodomains; host or cells: T7 phage display in E. coli host derived from BL21

[8] = system: OVCAR-5; experiment: NCI-60 DTP Human Tumour Cell Line Screen; format: cell-based; settings: NCI-60 screen, 10 μM, ovarian cancer
[9] = system: SR; experiment: NCI-60 DTP Human Tumour Cell Line Screen; format: cell-based; settings: NCI-60 screen, 10 μM, leukaemia panel
[10] = system: mice (male and female); experiment: Toxicity screening, single dose; format: in vivo
From the text: […]. All studied organs and tissues had the structure characteristics and relative body weights for normal animals.

[11] = target: T6, BRD2(1) (Homo sapiens, UniProt P25440); experiment: BROMOscan; format: binding; settings: BROMOscan
T6 construct: T7 phage strains displaying bromodomains; host or cells: T7 phage display in E. coli host derived from BL21

[12] = system: leukaemia cell lines; experiment: NCI-60 DTP Human Tumour Cell Line Screen, leukaemia panel; format: cell-based; settings: NCI-60 screen, 10 μM
[13] = target: T7, BRD4-BD1 (Homo sapiens, UniProt O60885); experiment: Isothermal titration calorimetry (ITC), dissociation constant; format: binding
T7 construct: BRD4-BD1 was expressed and purified as described previously; made in house
Method: Data were obtained in discrete titration experiments with an injection volume of 12 μl per injection. Subsequently, the heats per injection were calculated as integrals and after normalization against the molar concentrations plotted against the molar ratio as implemented in Microcal Origin. Finally, data were fitted according to a single set of sites binding model with
[formula] as function to calculate the overall sum of heat of the titration and with
[formula] […] A correction term was included to compensate for displacement of volume of the sample cell in the course of subsequent injections according to the manufacturer's manual “ITC Data Analysis in Origin” (Microcal).
The dissociation constant has molar units which correspond to the concentration of ligand at which the binding site on a particular protein is half occupied, i.e. the concentration of the ligand at which the concentration of protein with ligand bound equals the concentration of protein with no ligand bound. The smaller the dissociation constant, the higher the affinity between ligand and protein.

[14] = system: COLO 205; experiment: NCI-60 DTP Human Tumour Cell Line Screen; format: cell-based; settings: NCI-60 screen, 10 μM, colon cancer
[15] = system: T8, BET bromodomain family; experiment: BROMOscan selectivity profile; format: binding, human
T8 construct: other: BROMOscan
Method: as §1, §2
Sphere size and colour indicate the binding affinity of the compound of formula (4) to the specific BRDs, as observed in the BROMOscan™ assay. Additionally, binding to PB1-BD4 was assessed by local ITC measurements. The dissociation constant (Kd) corresponding to each BRD in complex with the compound of formula (4) is indicated. […]

T5 sequence (Q15059 34-140 limits assumed): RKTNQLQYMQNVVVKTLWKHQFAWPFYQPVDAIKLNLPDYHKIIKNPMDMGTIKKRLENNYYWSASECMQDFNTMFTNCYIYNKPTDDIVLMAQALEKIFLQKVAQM
T2 sequence (Q92793 1085-1192 limits assumed): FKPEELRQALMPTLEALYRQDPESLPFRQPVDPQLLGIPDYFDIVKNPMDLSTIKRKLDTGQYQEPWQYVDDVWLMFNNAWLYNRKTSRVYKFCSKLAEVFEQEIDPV
T3 sequence (Q15059 306-415 limits assumed): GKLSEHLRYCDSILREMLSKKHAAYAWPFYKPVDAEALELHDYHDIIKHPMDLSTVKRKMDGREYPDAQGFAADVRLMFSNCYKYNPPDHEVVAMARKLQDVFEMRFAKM
T6 sequence (P25440 74-180 limits assumed): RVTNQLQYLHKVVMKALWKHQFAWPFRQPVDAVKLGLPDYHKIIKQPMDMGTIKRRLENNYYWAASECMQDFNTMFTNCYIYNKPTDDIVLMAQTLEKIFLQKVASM

CCc1c(C(=O)Nc2cc(S(=O)(=O)N(CC)CC)ccc2O)[nH]c(C)c1C(C)=O [compound of formula (4)]
sensitivity in the cell line screen (growth inhibition) [1]: most sensitive | Kd [2]: ~3500 nM | Kd [3]: ~3500 nM | affinity to BRD3 (both BRDs), BD2 [4]: nM range | antiproliferative activity against HeLa [5]: no antiproliferative activity | Kd [6]: 160 nM | affinity to BRD3 (both BRDs), BD1 [7]: nM range | sensitivity in the cell line screen (growth inhibition) [8]: most resistant | sensitivity in the cell line screen (growth inhibition) [9]: most sensitive | LD50 ([10]; mice (male and female), single dose): higher than 2000 mg/kg of body weight | signs of toxicity ([10]; mouse, in vivo, 2000 mg/kg): did not induce any signs of toxicity | affinity to BRD2-BD1 [11]: nM range | activity against the leukaemia cell lines [12]: potent and selective activity | Kd ([13]; ITC, 25° C., read-out: dissociation constant Kd for BRD4-BD1): 300 nM | Kd ([13]; Table 1, target not given, values of formula (4) and (3) match ITC Kd for BRD4-BD1, read-out: pKd (converted)): 316 nM | sensitivity in the cell line screen (growth inhibition) [14]: most resistant | binding specificity within the human BRD family [15]: bind specifically to the BET bromodomain family
